Patent US9078845B2, “Anti-microbial agent” (priority 2005, dated 2015)

Experiments:
[1] = system: Salmonella cholerae-suis ATCC 10708; experiment: Minimum Inhibitory Concentration Test (broth dilution, turbidity); format: cell-based; settings: 48 hours at 37° C.
[2] = system: Pseudomonas aeruginosa; experiment: suspension test; format: cell-based; settings: after 30 mins
Protocol: The compositions were tested for antimicrobial activity using the suspension test in Example 3 outlined at room temperature against the following organisms:
The anti-microbial activity of a-linolenic acid and terpinen-4-ol separately and in combination were tested using the suspension test as outlined in Example 3 above.

[3] = system: Staphylococcus aureus ATCC 6538; settings: 48 hours at 37° C.
[4] = system: Methicillin Resistant Staphylococcus Wild Strain; settings: 48 hours at 37° C.
[5] = system: Escherichia coli ATCC 8739; settings: 48 hours at 37° C.
[6] = system: Streptococcus pyogenes University of Melbourne MDU; settings: 48 hours at 37° C.
[7] = system: Morazella Catarrhalis; settings: 48 hours at 37° C.
[8] = dilution 1:100 in Tryptone Soya broth
[9] = dilution 1:200 in Tryptone Soya broth
[10] = dilution 1:400 in Tryptone Soya broth
[11] = dilution 1:800 in Tryptone Soya broth
[12] = dilution 1:1600 in Tryptone Soya broth
[13] = dilution 1:3200 in Tryptone Soya broth
[14] = dilution 1:6400 in Tryptone Soya broth
[15] = dilution 1:12800 in Tryptone Soya broth
[16] = dilution 1:25600 in Tryptone Soya broth
[17] = dilution 1:51200 in Tryptone Soya broth
[18] = dilution 1:102400 in Tryptone Soya broth

CC/C=C\C/C=C\C/C=C\CCCCCCCC(=O)O [α-linolenic acid]
1 log10: reduction in the survival of P. aeruginosa [2]
+: Growth (turbidity) at Dilution 1:400 [1, 10] | Growth (turbidity) at Dilution 1:800 [1, 11] | Growth (turbidity) at Dilution 1:1600 [1, 12] | Growth (turbidity) at Dilution 1:3200 [1, 13] | Growth (turbidity) at Dilution 1:6400 [1, 14] | Growth (turbidity) at Dilution 1:12800 [1, 15] | Growth (turbidity) at Dilution 1:25600 [1, 16] | Growth (turbidity) at Dilution 1:51200 [1, 17] | Growth (turbidity) at Dilution 1:102400 [1, 18] | Growth (turbidity) at Dilution 1:102400 [3, 18] | Growth (turbidity) at Dilution 1:102400 [4, 18] | Growth (turbidity) at Dilution 1:100 [5, 8] | Growth (turbidity) at Dilution 1:200 [5, 9] | Growth (turbidity) at Dilution 1:400 [5, 10] | Growth (turbidity) at Dilution 1:800 [5, 11] | Growth (turbidity) at Dilution 1:1600 [5, 12] | Growth (turbidity) at Dilution 1:3200 [5, 13] | Growth (turbidity) at Dilution 1:6400 [5, 14] | Growth (turbidity) at Dilution 1:12800 [5, 15] | Growth (turbidity) at Dilution 1:25600 [5, 16] | Growth (turbidity) at Dilution 1:51200 [5, 17] | Growth (turbidity) at Dilution 1:102400 [5, 18] | Growth (turbidity) at Dilution 1:51200 [6, 17] | Growth (turbidity) at Dilution 1:102400 [6, 18] | Growth (turbidity) at Dilution 1:12800 [7, 15] | Growth (turbidity) at Dilution 1:25600 [7, 16] | Growth (turbidity) at Dilution 1:51200 [7, 17] | Growth (turbidity) at Dilution 1:102400 [7, 18]
−: Growth (turbidity) at Dilution 1:100 [1, 8] | Growth (turbidity) at Dilution 1:200 [1, 9] | Growth (turbidity) at Dilution 1:100 [3, 8] | Growth (turbidity) at Dilution 1:200 [3, 9] | Growth (turbidity) at Dilution 1:400 [3, 10] | Growth (turbidity) at Dilution 1:800 [3, 11] | Growth (turbidity) at Dilution 1:1600 [3, 12] | Growth (turbidity) at Dilution 1:3200 [3, 13] | Growth (turbidity) at Dilution 1:6400 [3, 14] | Growth (turbidity) at Dilution 1:12800 [3, 15] | Growth (turbidity) at Dilution 1:25600 [3, 16] | Growth (turbidity) at Dilution 1:100 [4, 8] | Growth (turbidity) at Dilution 1:200 [4, 9] | Growth (turbidity) at Dilution 1:400 [4, 10] | Growth (turbidity) at Dilution 1:800 [4, 11] | Growth (turbidity) at Dilution 1:1600 [4, 12] | Growth (turbidity) at Dilution 1:3200 [4, 13] | Growth (turbidity) at Dilution 1:6400 [4, 14] | Growth (turbidity) at Dilution 1:12800 [4, 15] | Growth (turbidity) at Dilution 1:25600 [4, 16] | Growth (turbidity) at Dilution 1:51200 [4, 17] | Growth (turbidity) at Dilution 1:100 [6, 8] | Growth (turbidity) at Dilution 1:200 [6, 9] | Growth (turbidity) at Dilution 1:400 [6, 10] | Growth (turbidity) at Dilution 1:800 [6, 11] | Growth (turbidity) at Dilution 1:1600 [6, 12] | Growth (turbidity) at Dilution 1:3200 [6, 13] | Growth (turbidity) at Dilution 1:6400 [6, 14] | Growth (turbidity) at Dilution 1:12800 [6, 15] | Growth (turbidity) at Dilution 1:100 [7, 8] | Growth (turbidity) at Dilution 1:200 [7, 9] | Growth (turbidity) at Dilution 1:400 [7, 10] | Growth (turbidity) at Dilution 1:800 [7, 11] | Growth (turbidity) at Dilution 1:1600 [7, 12] | Growth (turbidity) at Dilution 1:3200 [7, 13] | Growth (turbidity) at Dilution 1:6400 [7, 14]

CC1=CCC(O)(C(C)C)CC1 (stereo not drawn) [terpinen-4-ol]
1 log10: reduction in the survival of P. aeruginosa [2]
